Test results taken from patent US7345049B2, “Phenylalanine derivatives” (Ajinomoto Co., Inc., priority 2003, dated 2008).

Key:
[1] = molecular target: T1, VCAM-1/α4β1 integrin binding (Homo sapiens, UniProt P05556+P13612); assay: Assay of antagonistic activity to VCAM-1/α4β1 integrin binding under the existence of blood serum (Jurkat cell adhesion to VCAM-1/Fc); type: cell-based; conditions: Jurkat cells, recombinant human VCAM-1/Fc, 50% human blood serum
T1 construct: Jurkat (ATCC TIB-152), known to express integrin α4β1; endogenous in cells; host or cells: Jurkat (ATCC TIB-152)
T1 sequence (P13612 34-1032): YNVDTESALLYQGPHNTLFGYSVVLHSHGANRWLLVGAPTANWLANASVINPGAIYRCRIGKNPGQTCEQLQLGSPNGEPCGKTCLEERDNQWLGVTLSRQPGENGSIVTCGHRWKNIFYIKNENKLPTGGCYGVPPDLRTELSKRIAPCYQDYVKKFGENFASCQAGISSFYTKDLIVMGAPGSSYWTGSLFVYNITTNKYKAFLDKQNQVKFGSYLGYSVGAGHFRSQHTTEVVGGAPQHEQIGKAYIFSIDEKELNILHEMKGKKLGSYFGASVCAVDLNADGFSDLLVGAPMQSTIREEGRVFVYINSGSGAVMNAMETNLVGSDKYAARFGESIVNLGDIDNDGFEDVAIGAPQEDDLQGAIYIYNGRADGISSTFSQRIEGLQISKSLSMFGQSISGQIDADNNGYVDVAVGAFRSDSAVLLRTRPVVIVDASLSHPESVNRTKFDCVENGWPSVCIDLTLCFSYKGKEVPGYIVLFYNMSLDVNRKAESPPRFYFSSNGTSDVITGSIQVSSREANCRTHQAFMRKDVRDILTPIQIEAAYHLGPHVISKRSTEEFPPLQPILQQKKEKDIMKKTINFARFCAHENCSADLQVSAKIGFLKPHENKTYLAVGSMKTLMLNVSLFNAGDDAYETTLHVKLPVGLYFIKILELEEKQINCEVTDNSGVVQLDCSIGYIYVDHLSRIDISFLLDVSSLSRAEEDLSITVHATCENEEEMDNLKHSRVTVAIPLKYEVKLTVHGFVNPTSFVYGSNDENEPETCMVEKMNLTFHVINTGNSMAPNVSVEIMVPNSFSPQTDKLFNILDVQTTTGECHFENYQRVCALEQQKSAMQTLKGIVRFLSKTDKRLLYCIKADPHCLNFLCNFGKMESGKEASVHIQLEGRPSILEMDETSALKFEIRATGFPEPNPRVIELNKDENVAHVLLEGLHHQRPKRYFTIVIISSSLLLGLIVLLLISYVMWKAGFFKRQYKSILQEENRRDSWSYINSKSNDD
T1 sequence (P05556 21-798): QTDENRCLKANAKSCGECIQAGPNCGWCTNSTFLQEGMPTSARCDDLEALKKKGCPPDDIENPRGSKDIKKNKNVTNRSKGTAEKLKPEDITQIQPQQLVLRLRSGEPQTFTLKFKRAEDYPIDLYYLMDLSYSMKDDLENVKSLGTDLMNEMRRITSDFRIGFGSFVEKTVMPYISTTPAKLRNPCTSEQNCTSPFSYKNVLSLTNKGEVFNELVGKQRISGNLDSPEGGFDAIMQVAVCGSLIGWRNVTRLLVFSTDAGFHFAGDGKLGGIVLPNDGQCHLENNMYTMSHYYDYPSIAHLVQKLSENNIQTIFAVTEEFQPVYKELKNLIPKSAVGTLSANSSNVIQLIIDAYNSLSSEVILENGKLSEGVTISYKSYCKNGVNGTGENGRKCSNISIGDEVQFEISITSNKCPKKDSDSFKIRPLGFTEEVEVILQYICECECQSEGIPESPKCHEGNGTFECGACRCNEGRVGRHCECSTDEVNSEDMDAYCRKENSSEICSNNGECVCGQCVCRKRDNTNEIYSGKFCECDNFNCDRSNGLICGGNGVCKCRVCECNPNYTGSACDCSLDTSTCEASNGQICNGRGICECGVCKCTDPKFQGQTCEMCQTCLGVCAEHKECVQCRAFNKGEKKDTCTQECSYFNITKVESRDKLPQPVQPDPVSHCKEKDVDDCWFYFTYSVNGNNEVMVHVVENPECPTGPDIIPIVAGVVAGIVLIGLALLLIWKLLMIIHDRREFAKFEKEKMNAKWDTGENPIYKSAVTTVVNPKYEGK
Experimental: Assay of Antagonistic Activity to VCAM-1/α4β1 Integrin Binding Under the Existence of Blood Serum
The capacity of a test substance antagonistic to the binding of cell strain of human T cells, Jurkat (ATCC TIB-152), known to express integrin α4β1, to VCAM-1 was determined.
Fifty μl/well of a solution (500 ng/ml) of recombinant human VCAM-1/Fc (R & D systems) diluted with buffer A (0.1 M NaHCO3, pH 9.6) was added to a 96-well microtiter plate (Nunc Maxisorp). After the incubation at 4° C. overnight and washing once with PBS, a buffer (buffer B) obtained by diluting Block Ace (Snow Brand Milk Products Co., Ltd.) with PBS to ½ concentration was added in an amount of 150 μl/well. After the incubation at room temperature for 2 hours, buffer B was removed and the plate was washed with PBS once.
Jurkat cells were washed with Dulbecco modified Eagle medium (SIGMA, hereinafter referred to as “DMEM”) once. Then, the cells were again suspended in a binding buffer (DMEM containing 20 mM HEPES, 0.1% BSA, 2 mM MnCl2 and 50% human blood serum (Sigma)) to become 1×10^6 cells/mL.
Sixty μl of a test substance of various concentrations obtained by the dilution with the binding buffer was added to a round-bottom, 96-well plate (IWAKI). Immediately thereafter, 60 μl of the Jurkat cells (1×10^6 cells/ml) were added thereto and shaken on a plate shaker (IKA-Labortechnik, IKA-SCHUTTLER MTS-4) at 1000 rpm for 10 seconds. In 120 μL of the cell suspension to which the test substance was added, each 100 μL thereof was transferred on the VCAM-1/Fc-coated plate and incubated in dark place at room temperature for 60 minutes. After the shaking on the plate shaker at 1000 rpm for 30 seconds, the solution was immediately removed. Then, the unbound cells were removed by washing them with PBS once. A buffer C (PBS containing 0.82% Triton X-100) was added to the plate in an amount of 70 μL/well. After the shaking on the plate shaker at 1000 rpm for 5 minutes, the bound Jurkat cells were lysed. After centrifuging the cells on a plate centrifuge (SIGMA 4-15C) at room temperature at 2500 rpm for 5 minutes, 50 μL of supernatant thereof was transferred to a 96-well microtiter plate (Nunc Maxisorp). Each 50 μL of Substrate Buffer (Promega, CytoTox 96 Non-Radioactive Cytotoxicity Assay) was added thereto, shaken on a plate shaker at 1000 rpm for 10 seconds and reacted in dark place at room temperature for 30 minutes. Then, each 50 μL of Stop Solution (Promega, CytoTox 96 Non-Radioactive Cytotoxicity Assay) was added thereto and shaken on a plate shaker at 1000 rpm for 10 seconds. […] The absorbance thus obtained detects an activity of lactate dehydrogenase (LDH) dissolved in the supernatant of each well. Namely, the absorbance is proportional to the number of remaining Jurkat cells on the plate via the binding to VCAM-1. The test was conducted in duplicate and the binding rate of each test substance in various concentrations was determined while the absorbance of the test substance-free well was determined to be 100% and the absorbance of the Jurkat-cell-free well was determined to be 0%. The concentration for the 50% inhibition of binding, IC50, was calculated.

[2] = Pharmacokinetic study by intravenous administration to a rat; type: in vivo; conditions: plasma, 1 mg/kg; intravenous single dose, 1 mg/mL solution at 1 mL/kg, Wistar rat, active form; read-out: Total body clearance CLtot (converted)
Experimental: Pharmacokinetic Study by Intravenous Administration to a Rat
After the compounds of the present invention wherein R11 to R141 are a hydroxyl group, which were active forms, were weighed by a scale, they were adjusted by dimethylsulfoxide to become 10 mg/mL. Polyethylene glycol 400 and distilled water were added thereto to prepare 1 mg/mL of an administration solution. 1 mg/mL of the administration solution was intravenously administered as a single dose to a Wistar rat in an amount of 1 mL/kg. 1, 5, 10, 30, 60 and 180 minutes later, the drug concentration in the blood plasma obtained by blood drawing from its cervical vein over time under anesthesia was determined with LC/MS. From the obtained results, the area under the plasma concentration time curve from zero to time infinity (AUCinf (iv)) was calculated in accordance with the trapezoidal method of pharmacokinetic analysis. The total body clearance (CLtot, [L/hr/kg]) was calculated as an index of drug disappearance in the blood plasma from a dose [mg/kg] and AUC [μg×hr/mL] in accordance with the formula: CLtot=Dose÷AUCinf(iv).

## CN(C)Cc1ccc2c(=O)n(-c3ccc(C[C@H](NC(=O)c4c(Cl)cccc4Cl)C(=O)O)cc3)c(=O)n(C)c2c1.O=C(O)C(F)(F)F [Example 34, N-(2,6-dichlorobenzoyl)-4-[7-[(dimethylamino)methyl]-1-methyl-2,4-quinazoline-dione-3-yl]-L-phenylalanine Trifluoroacetate]
[1]
  IC50: 10.5 nM
[2]
  clearance: 5.17 mL/min/kg

## CSc1ccc2c(c1)c(=O)n(-c1ccc(C[C@H](NC(=O)c3c(Cl)cccc3Cl)C(=O)O)cc1)c(=O)n2C [Example 37, N-(2,6-dichlorobenzoyl)-4-[1-methyl-6-(methylthio)-2,4-quinazoline-dione-3-yl]-L-phenylalanine]
[2]
  clearance: 5.5 mL/min/kg

## Cn1c(=O)n(-c2ccc(C[C@H](NC(=O)c3c(Cl)cccc3Cl)C(=O)O)cc2)c(=O)c2ccc(N3CCCC3)cc21.O=C(O)C(F)(F)F [Example 40, N-(2,6-dichlorobenzoyl)-4-[1-methyl-7-(pyrrolidine-1-yl)-2,4-quinazoline-dione-3-yl]-L-phenylalanine trifluoroacetate]
[2]
  clearance: 3.17 mL/min/kg

## CCNCc1ccc2c(c1)c(=O)n(-c1ccc(C[C@H](NC(=O)c3c(Cl)cccc3Cl)C(=O)O)cc1)c(=O)n2C [Example 54]
[1]
  IC50: 14.5 nM
[2]
  clearance: 4.5 mL/min/kg

## Cn1c(=O)n(-c2ccc(C[C@H](NC(=O)c3c(Cl)cccc3Cl)C(=O)O)cc2)c(=O)c2cc(-n3ccnc3N)ccc21 [Example 59]
[2]
  clearance: 5.33 mL/min/kg

## CNCc1ccc2c(c1)c(=O)n(-c1ccc(C[C@H](NC(=O)c3c(Cl)cccc3Cl)C(=O)O)cc1)c(=O)n2C [Example 99]
[1]
  IC50: 11.2 nM
[2]
  clearance: 3.83 mL/min/kg
